Source: patent US7709636B2, “Pyrazole sulfonylurea compound and herbicide” (Nissan Chemical Industries, Ltd., priority 2004, dated 2010)

Legend:
Echinochloa crus-galli [1] = assay: Herbicidal effect test in submerged condition by treatment before weed-generation (1); type: in vivo; details: 0.64 g/a, water surface treated on day of sowing, 3 weeks after treatment
Outline: (§1)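 Effect grade 0–5 from herbicidal rate, 3 wk after water-surface treatment. Flooded alluvial soil, 4 cm depth, pre-emergence dosing on sowing day; rice transplanted at 2.5 leaf; 25 to 30° C greenhouse.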

Monochoria vaginalis [2] = assay: as above; type: in vivo; details: 0.64 g/a, water surface treated on day of sowing, 3 weeks after treatment
Outline: as §1

Scirpus juncoides [3] = assay: as above; type: in vivo; details: 0.64 g/a, water surface treated on day of sowing, 3 weeks after treatment
Outline: as §1

Echinochloa crus-galli [4] = assay: Herbicidal effect test in submerged condition by treatment during weed-growth stage (1); type: in vivo; details: 0.64 g/a, treated at 1st to 2nd leaf stage, 3 weeks after treatment
Outline: (§2)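 Paddy-soil pots flooded to 4 cm water depth were sown and grown in a greenhouse at 25 to 30° C until weeds reached 1st to 2nd leaf stage. A wettable powder diluted in water to a predetermined formulation amount was applied to the water surface. Herbicidal effect was scored 3 weeks after treatment against set criteria.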

Monochoria vaginalis [5] = assay: as above; type: in vivo; details: 0.64 g/a, treated at 1st to 2nd leaf stage, 3 weeks after treatment
Outline: as §2

Scirpus juncoides [6] = assay: as above; type: in vivo; details: 0.64 g/a, treated at 1st to 2nd leaf stage, 3 weeks after treatment
Outline: as §2

Echinochloa crus-galli [7] = assay: Herbicidal effect test in submerged condition by treatment before weed-generation (2); type: in vivo; details: 0.3 g/a; submerged paddy soil pot, water surface treated on day of sowing; 3 weeks after treatment
Experimental: (§3) Herbicidal Effect Test in Submerged Condition by Treatment Before Weed-Generation (2)
(§4) Paddy surface soil was placed in a plastic pot of 1/10000 are, water was poured therein and mixed. After seeds of Scirpus juncoides were sown, paddy surface soil was added by 2 cm, and submerged with water, and then seeds of Echinochloa crus-galli, Scirpus juncoides, Monochoria vaginalis, Rotala indica and Lindernia pyxidaria were sown together. In addition, rice seedlings at 2.5th leaf stage were transplanted, and fixed to the paddy surface in a state where the roots were exposed on the other side. On the day when the seeds were sown, the wettable powder of the present invention prepared according to Formulation Example 1 was diluted with water so as to give a predetermined formulation amount, and the surface of the water was treated with the diluted wettable powder. The plants were grown by putting the pot in a green house at 25 to 30° C. The herbicidal effect for each plant was investigated 3 weeks after treatment with the herbicide according to the criteria indicated in Test Example 1.

Lindernia pyxidaria = assay: as above; type: in vivo; details: 0.3 g/a; submerged paddy soil pot, water surface treated on day of sowing; 3 weeks after treatment
Experimental: as §3, §4

Monochoria vaginalis [8] = assay: as above; type: in vivo; details: 0.3 g/a; submerged paddy soil pot, water surface treated on day of sowing; 3 weeks after treatment
Experimental: as §3, §4

Rotala indica = assay: as above; type: in vivo; details: 0.3 g/a; submerged paddy soil pot, water surface treated on day of sowing; 3 weeks after treatment
Experimental: as §3, §4

Scirpus juncoides [9] = assay: as above; type: in vivo; details: 0.3 g/a; submerged paddy soil pot, water surface treated on day of sowing; 3 weeks after treatment
Experimental: as §3, §4

[10] = test system: transplanted rice (Oryza sativa); assay: as above; type: in vivo; details: 0.3 g/a; submerged paddy soil pot, rice seedlings at 2.5th leaf stage transplanted; 3 weeks after treatment
Experimental: as §3, §4

[11] = test system: rice transplanted at a depth of 0 cm; assay: as above; type: in vivo, Oryza sativa; details: 0.3 g/a; submerged paddy soil pot, seedlings fixed to paddy surface with roots exposed; 3 weeks after treatment
Experimental: as §3, §4

[12] = test system: transplanted rice (Oryza sativa); assay: Crop injury test on rice in water leakage condition; type: in vivo; details: 0.15 g/a; water leakage 2 cm/day x 3 days; treated on third day after transplantation; 3 weeks after treatment
Experimental: Crop Injury Test on Rice in Water Leakage Condition A mixed soil of alluvial soil and diluvial soil was placed in a plastic pot perforated at the bottom of 1/10000 are, water was poured therein and mixed, and then rice seedlings at 2.5th leaf stage were transplanted. Water leakage treatment was carried out by placing the pot in a plastic vat, and controlling the amount of water in the vat kept at a condition of 2 cm/day×3 days. The pot was put in a green house at 25 to 30° C., on third day after transplantation, the wettable powder of the present invention prepared according to Formulation Example 1 was diluted with water so as to give a predetermined formulation amount, and the surface of the water was treated with the diluted wettable powder. The crop injury on rice was investigated 3 weeks after treatment with the herbicide according to the criteria indicated in Test Example 1.

Row | SMILES | herbicidal effect, A: Echinochloa crus-galli (Echinochloa crus-galli [1]) | herbicidal effect, C: Monochoria vaginalis (Monochoria vaginalis [2]) | herbicidal effect, B: Scirpus juncoides (Scirpus juncoides [3]) | herbicidal effect, A: Echinochloa crus-galli (Echinochloa crus-galli [4]) | herbicidal effect, C: Monochoria vaginalis (Monochoria vaginalis [5]) | herbicidal effect, B: Scirpus juncoides (Scirpus juncoides [6]) | herbicidal effect, A: Echinochloa crus-galli (Echinochloa crus-galli [7]) | herbicidal effect, O: Lindernia pyxidaria (Lindernia pyxidaria) | herbicidal effect, C: Monochoria vaginalis (Monochoria vaginalis [8]) | herbicidal effect, N: Rotala indica (Rotala indica) | herbicidal effect, B: Scirpus juncoides (Scirpus juncoides [9]) | herbicidal effect, a: transplanted rice (Oryza sativa) [10] | herbicidal effect, g: rice transplanted at a depth of 0 cm [11] | crop injury on rice, a: transplanted rice (Oryza sativa) [12]
1 | COc1cc(OC)nc(NC(=O)NS(=O)(=O)c2c(C3=NOCCO3)c(Cl)nn2C)n1 [Comparative Compound 1] | 5 (Herbicidal rate 90% or more (almost complete death)) | 5 (Herbicidal rate 90% or more (almost complete death)) | 5 (Herbicidal rate 90% or more (almost complete death)) | 5 (Herbicidal rate 90% or more (almost complete death)) | 5 (Herbicidal rate 90% or more (almost complete death)) | 5 (Herbicidal rate 90% or more (almost complete death)) | 5 (Herbicidal rate 90% or more (almost complete death)) | 5 (Herbicidal rate 90% or more (almost complete death)) | 5 (Herbicidal rate 90% or more (almost complete death)) | 5 (Herbicidal rate 90% or more (almost complete death)) | 5 (Herbicidal rate 90% or more (almost complete death)) | 0 (Herbicidal rate 5% or less (little effect)) | 3 (Herbicidal rate 40% or more and less than 70%) | 3 (Herbicidal rate 40% or more and less than 70%)
2 | COc1cc(OC)nc(NC(=O)NS(=O)(=O)c2c(C3=NOCCO3)c(C)nn2C)n1 [Comparative Compound 2] | 5 (Herbicidal rate 90% or more (almost complete death)) | 5 (Herbicidal rate 90% or more (almost complete death)) | 5 (Herbicidal rate 90% or more (almost complete death)) | 5 (Herbicidal rate 90% or more (almost complete death)) | 5 (Herbicidal rate 90% or more (almost complete death)) | 5 (Herbicidal rate 90% or more (almost complete death)) | 5 (Herbicidal rate 90% or more (almost complete death)) | 5 (Herbicidal rate 90% or more (almost complete death)) | 5 (Herbicidal rate 90% or more (almost complete death)) | 5 (Herbicidal rate 90% or more (almost complete death)) | 5 (Herbicidal rate 90% or more (almost complete death)) | 4 (Herbicidal rate 70% or more and less than 90%) | 4 (Herbicidal rate 70% or more and less than 90%) | 5 (Herbicidal rate 90% or more (almost complete death))
